This note sets out measurements from patent US20190185518A9, “WARHEAD-CONTAINING PEPTIDOMIMETIC MACROCYCLES AS MODULATORS OF BFL-1” (AILERON Therapeutics, Inc., priority 2017, published 2019).

The test system of experiment [1] is ABT-199 resistant Burkitt lymphoma Raji cells. The experiment can be described thus: WST-1 anti-proliferative activity in Raji cells. Conditions: TABLE 9; Raji cell proliferation. The format is cell-based, Human. The text has this:
WST-1 is a cell proliferation reagent that is used in colorimetric assays designed to measure the relative proliferation rates of cells in culture. The assay is based on the conversion of the tetrazolium salt WST-1 into a colored dye by mitochondrial dehydrogenase enzymes. The soluble salt is released into the media. Within a given time period, the reaction produces a color change that is directly proportional to the amount of mitochondrial dehydrogenase in a culture. The WST-1 assay measures the net metabolic activity of cells.

Experiment [2] concerns A375-P melanoma cells. Briefly: Caspase-3/7 activation (Caspase-Glo 3/7), A375-P. In kind it is cell-based. The settings on record: A375-P cells, 40 μM. The method, then: (§1) Cancer cells were cultured using a standard culture medium containing 10% fetal bovine serum (FBS) and penicillin-streptomycin (A375P: DMEM; SK-MEL-2, SK-MEL-28: EMEM). Cells were plated in 96-well plates (5×10^3 cells per well) and, after overnight incubation, treated with the indicated concentrations of Stapled Peptides in the corresponding medium supplemented with 5% FBS for the indicated durations. Cell viability and caspase-3/7 activation was measured using CellTiter-Glo and Caspase-Glo 3/7 chemiluminescence reagents (Promega), respectively. Luminescence was detected by a microplate reader (Spectramax M5, Molecular Devices).

For experiment [3], the system named is SK-MEL-28 melanoma cells. The experiment can be described thus: Cell viability (CellTiter-Glo), SK-MEL-28. In kind it is cell-based. Conditions: 40 μM. The method, then: as §1
A further experiment concerns Mcl-1, Bcl-xL, Bcl-2. The experiment can be described thus: BCL-2 family selectivity profile. In kind it is binding. The text has this: The binding spectrum of stapled BIM BH3 peptides were tuned for BCL-2 family selectivity. […] ABT-199 is venetoclax, and † represents values reported in the literature.
The test system of experiment [4] is A375-P melanoma cells. The experiment can be described thus: Cell viability (CellTiter-Glo), A375-P. In kind it is cell-based. Conditions: 40 μM. The method, then:
as §1

Experiment [5] has as its system SK-MEL-2 melanoma cells. The experiment can be described thus: Caspase-3/7 activation (Caspase-Glo 3/7), SK-MEL-2. Conditions: SK-MEL-2 cells, 40 μM. The format is cell-based. As to the method:
as §1

Experiment [6] concerns SK-MEL-2 melanoma cells. Briefly: Cell viability (CellTiter-Glo), SK-MEL-2. The format is cell-based. Conditions: 40 μM. As to the method:
as §1

For experiment [7], the system named is SK-MEL-28 melanoma cells. Briefly: Caspase-3/7 activation (Caspase-Glo 3/7), SK-MEL-28. The format is cell-based. Conditions: SK-MEL-28 cells, 40 μM. As to the method:
as §1

Experiment [8] deals with T1, MCL-1/BAK protein-protein interaction (Homo sapiens, UniProt Q07820).
T1 construct: host or cells: Raji
T1 sequence (Q07820 whole entry): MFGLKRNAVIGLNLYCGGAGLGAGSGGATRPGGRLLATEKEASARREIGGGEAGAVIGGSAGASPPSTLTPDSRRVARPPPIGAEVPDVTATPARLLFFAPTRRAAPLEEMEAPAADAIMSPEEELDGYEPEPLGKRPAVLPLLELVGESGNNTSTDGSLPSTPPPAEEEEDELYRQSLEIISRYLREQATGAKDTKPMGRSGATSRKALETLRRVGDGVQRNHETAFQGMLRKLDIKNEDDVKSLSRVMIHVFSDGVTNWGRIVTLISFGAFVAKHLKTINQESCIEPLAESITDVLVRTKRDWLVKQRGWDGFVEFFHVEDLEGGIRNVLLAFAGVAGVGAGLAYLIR
The experiment can be described thus: MCL-1 displacement study (BAK FRET signal). The format is cell-based. Conditions: 10 μM and 20 μM. As to the method: BIM peptidomimetic macrocycles were tested for displacement of MCL-1 from a BAK fluorescence resonance energy transfer (FRET) peptide.
FIG. 19 compares normalized FRET signals of samples to determine the samples' effects in disrupting MCL-1/BAK protein-protein interactions.

The target of the next experiment is Mcl-1 (Homo sapiens, UniProt Q07820). The experiment can be described thus: Ki determination for Mcl-1 (BCL-2 family binding spectrum). The method in brief:
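Competitive fluorescence polarization assay in which compounds displace a fluoresceinated peptidomimetic macrocycle tracer from Mcl-1. Affinity constants were obtained by nonlinear regression.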

The next experiment deals with Bcl-xL (Homo sapiens, UniProt Q07817). The experiment can be described thus: Ki determination for Bcl-xL (BCL-2 family binding spectrum). The settings on record: TABLE 6; read-out: Bcl-xL Ki. The method in brief:
(§2)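 Competitive fluorescence polarization: compounds (1 nM–1 mM) with 25 nM fluoresceinated peptidomimetic macrocycle and 50 nM protein in 140 mM NaCl, 50 mM Tris-HCl pH 7.4, 30 min at room temperature. Constants from nonlinear regression.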

The target of a further experiment is Bcl-2 (Homo sapiens, UniProt P10415). The experiment can be described thus: Ki determination for Bcl-2 (BCL-2 family binding spectrum). The settings on record: TABLE 6; read-out: Bcl-2 Ki. The method in brief: as §2
Sequence of Bcl-2 (P10415 whole entry, species assumed): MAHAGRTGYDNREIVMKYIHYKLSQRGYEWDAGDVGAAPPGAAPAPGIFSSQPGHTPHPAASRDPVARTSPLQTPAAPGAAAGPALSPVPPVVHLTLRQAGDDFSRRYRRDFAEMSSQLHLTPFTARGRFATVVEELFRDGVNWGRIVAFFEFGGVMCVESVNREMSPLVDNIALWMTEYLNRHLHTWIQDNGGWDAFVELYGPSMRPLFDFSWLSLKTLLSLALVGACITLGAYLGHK

Like-named read-outs stand apart in the source and are kept apart here. Positions of bridges follow the written chain, without caps; N, C: chain ends. Non-standard residues stand in square brackets, D forms with d. Residues, ends and D or L forms follow the SMILES beside them. R8 = C=CCCCCCC[C@@](C)(N)C(=O)O; Cit = NC(=O)NCCC[C@H](N)C(=O)O; S5 = C=CCCC[C@](C)(N)C(=O)O; Aib = CC(C)(N)C(=O)O

Sequence of Mcl-1 (Q07820 whole entry, species assumed): as the sequence (Q07820 whole entry) above
Sequence of Bcl-xL (Q07817 whole entry, species assumed): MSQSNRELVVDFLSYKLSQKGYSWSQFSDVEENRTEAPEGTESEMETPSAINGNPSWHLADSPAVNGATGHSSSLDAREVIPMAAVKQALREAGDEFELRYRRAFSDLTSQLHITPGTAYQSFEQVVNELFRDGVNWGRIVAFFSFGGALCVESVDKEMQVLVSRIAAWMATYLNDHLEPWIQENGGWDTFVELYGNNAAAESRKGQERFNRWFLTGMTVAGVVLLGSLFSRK

For the molecule `CC[C@H](C)[C@H](NC(C)=O)C(=O)N[C@@H](Cc1c[nH]c2ccccc12)C(=O)N[C@H](C(=O)N[C@@H](C)C(=O)N[C@@H](CCC(N)=O)C(=O)N[C@@H](CCC(=O)O)C(=O)N[C@@H](CC(C)C)C(=O)N[C@@H](CCCNC(=N)N)C(=O)N[C@@]1(C)CCCC=CCCC[C@@](C)(C(=O)N[C@@H](Cc2ccccc2)C(=O)N[C@@H](CC(N)=O)C(=O)N[C@@H](C)C(=O)N[C@@H](Cc2ccc(O)cc2)C(=O)N[C@@H](Cc2ccc(O)cc2)C(=O)N[C@@H](C)C(=O)N[C@@H](CCCNC(=N)N)C(=O)N[C@@H](CCCNC(=N)N)C(N)=O)NC(=O)[C@H](CC(=O)O)NC(=O)CNC(=O)[C@H]([C@@H](C)CC)NC1=O)[C@@H](C)CC` [BIM SAHBA1], the IC50 in experiment [1] turned out to be 23700 nM. Further, the apoptosis induction result with A375-P melanoma cells [2] was “neither BIM SAHBA1 nor Aileron peptide 1 affected proliferation and apoptosis induction”; with SK-MEL-2 melanoma cells [5], “neither BIM SAHBA1 nor Aileron peptide 1 affected proliferation and apoptosis induction”; with SK-MEL-28 melanoma cells [7], “neither BIM SAHBA1 nor Aileron peptide 1 affected proliferation and apoptosis induction”. Besides, the “% cell viability” value was “had no effect on % viability” in the experiment on SK-MEL-28 melanoma cells [3] (SK-MEL-28, 5% serum); “had no effect on % viability” in the experiment with A375-P melanoma cells [4] (A375-P, 5% serum); “had no effect on % viability” with SK-MEL-2 melanoma cells [6] (SK-MEL-2, 5% serum). Moreover, the proliferation entry in the experiment on SK-MEL-28 melanoma cells [3] (SK-MEL-28 cells), in the experiment with A375-P melanoma cells [4] (A375-P cells) and in the experiment on SK-MEL-2 melanoma cells [6] (SK-MEL-2 cells) was “neither BIM SAHBA1 nor Aileron peptide 1 affected proliferation” throughout. Moreover, the Profile result in the experiment with Mcl-1, Bcl-xL, Bcl-2 (TABLE 8) is on record as “Pan-selective”.

In the case of `CC[C@H](C)[C@H](NC(=O)[C@H](Cc1c[nH]c2ccccc12)NC(=O)[C@H](CCCNC(=N)N)NC(C)=O)C(=O)N[C@@H](C)C(=O)N[C@@H](CCC(N)=O)C(=O)N[C@@H](C)C(=O)N[C@@H](CC(C)C)C(=O)N[C@@H](CCCNC(=N)N)C(=O)N[C@@]1(C)CCCC=CCCC[C@@](C)(C(=O)N[C@@H](CC(C)C)C(=O)N[C@@H](CC(N)=O)C(=O)NC(C)(C)C(=O)N[C@@H](Cc2ccccc2)C(=O)N[C@@H](Cc2ccc(O)cc2)C(=O)N[C@@H](C)C(=O)N[C@@H](Cc2c[nH]cn2)C(=O)N[C@@H](Cc2c[nH]cn2)C(N)=O)NC(=O)[C@H](CC(=O)O)NC(=O)CNC(=O)[C@H]([C@@H](C)CC)NC1=O` [Peptide #14] (Ac-RWIAQALR[S5]IGD[S5]LN[Aib]FYAHH-NH2; staple 9-13), on Mcl-1, Bcl-xL, Bcl-2 (TABLE 7 assay), the “Ki of MCL-1 compared with Ki of BCL-xL or BCL-2” value is given as “drastically lower”. In addition, the Profile result in the experiment with Mcl-1, Bcl-xL, Bcl-2 (TABLE 8) was “Mcl-1 selective”. Also, the “disrupting the MCL-1/BAK protein-protein interaction (normalized FRET signal)” value in experiment [8] is “highly effective”. Further, the inhibition constant (Ki) at Mcl-1 (TABLE 7, read-out: MCL-1 Ki) was 11 nM.

For `CC[C@H](C)[C@H](NC(C)=O)C(=O)N[C@@H](Cc1c[nH]c2ccccc12)C(=O)N[C@H](C(=O)N[C@@H](C)C(=O)N[C@@H](CCC(N)=O)C(=O)N[C@@H](C)C(=O)N[C@@H](CC(C)C)C(=O)N[C@@H](CCCNC(N)=O)C(=O)N[C@]1(C)CCCCCCC=CCCC[C@@](C)(C(=O)N[C@@H](Cc2ccc(O)cc2)C(=O)N[C@@H](Cc2ccc(O)cc2)C(=O)N[C@@H](C)C(N)=O)NC(=O)[C@H](CC(N)=O)NC(=O)[C@H](Cc2ccccc2)NC(=O)[C@H](C)NC(=O)[C@H](CC(=O)O)NC(=O)CNC(=O)[C@H]([C@@H](C)CC)NC1=O)[C@@H](C)CC` [compound 5] (Ac-IWIAQAL[Cit][R8]IGDAFN[S5]YYA-NH2; staple 9-16), the Ki on Bcl-xL came out at 110 nM; on Bcl-2, 212 nM; at Mcl-1 (TABLE 6, read-out: Mcl-1 Ki), 7.5 nM. The Profile entry in the experiment on Mcl-1, Bcl-xL, Bcl-2 (TABLE 6) is “Mcl-1 selective”.

With `CC[C@H](C)[C@H](NC(C)=O)C(=O)N[C@@H](Cc1c[nH]c2ccccc12)C(=O)N[C@H](C(=O)N[C@@H](C)C(=O)N[C@@H](CCC(N)=O)C(=O)N[C@@H](C)C(=O)N[C@@H](CC(C)C)C(=O)N[C@@H](CCCNC(N)=O)C(=O)N[C@]1(C)CCCCCCC=CCCC[C@@](C)(C(=O)N[C@@H](Cc2ccc(O)cc2)C(=O)N[C@@H](Cc2ccc(O)cc2)C(=O)N[C@@H](C)C(N)=O)NC(=O)[C@H](CC(N)=O)NC(=O)[C@H](Cc2ccccc2)NC(=O)[C@H](CCC(N)=O)NC(=O)[C@H](CC(=O)O)NC(=O)CNC(=O)[C@H]([C@@H](C)CC)NC1=O)[C@@H](C)CC` [compound 6] (Ac-IWIAQAL[Cit][R8]IGDQFN[S5]YYA-NH2; staple 9-16), the Ki on Bcl-xL came to 28.8 nM; at Bcl-2, 88.2 nM; on Mcl-1 (TABLE 6, read-out: Mcl-1 Ki) it was 1.7 nM. Besides, the Profile entry in the experiment with Mcl-1, Bcl-xL, Bcl-2 (TABLE 6) was “Mcl-1 selective”.

Turning to `CC[C@H](C)[C@H](NC(C)=O)C(=O)N[C@@H](Cc1c[nH]c2ccccc12)C(=O)N[C@H](C(=O)N[C@@H](C)C(=O)N[C@@H](CCC(N)=O)C(=O)N[C@@H](C)C(=O)N[C@@H](CC(C)C)C(=O)N[C@@H](CCCNC(=N)N)C(=O)N[C@]1(C)CCCCCCC=CCCC[C@@](C)(C(=O)N[C@@H](Cc2ccc(O)cc2)C(=O)N[C@@H](Cc2ccc(O)cc2)C(=O)N[C@@H](C)C(N)=O)NC(=O)[C@H](CC(N)=O)NC(=O)[C@H](C)NC(=O)[C@H](C)NC(=O)[C@H](CC(=O)O)NC(=O)CNC(=O)[C@H]([C@@H](C)CC)NC1=O)[C@@H](C)CC` [compound 7] (Ac-IWIAQALR[R8]IGDAAN[S5]YYA-NH2; staple 9-16), the Ki came to 402 nM on Bcl-xL; 140 nM at Bcl-2; 7.5 nM at Mcl-1 (TABLE 6, read-out: Mcl-1 Ki). The Profile entry with Mcl-1, Bcl-xL, Bcl-2 (TABLE 6) was “Mcl-1 selective”.

For `CC[C@H](C)[C@H](NC(C)=O)C(=O)N[C@@H](Cc1c[nH]c2ccccc12)C(=O)N[C@H](C(=O)N[C@@H](C)C(=O)N[C@@H](CCC(N)=O)C(=O)N[C@@H](C)C(=O)N[C@@H](CC(C)C)C(=O)N[C@@H](CCCNC(=N)N)C(=O)N[C@]1(C)CCCCCCC=CCCC[C@@](C)(C(=O)N[C@@H](Cc2ccc(O)cc2)C(=O)N[C@@H](Cc2ccc(O)cc2)C(=O)N[C@@H](C)C(N)=O)NC(=O)[C@H](CC(N)=O)NC(=O)[C@H](Cc2ccccc2)NC(=O)[C@H](CCC(N)=O)NC(=O)[C@H](CC(=O)O)NC(=O)CNC(=O)[C@H](C)NC1=O)[C@@H](C)CC` [compound 10] (Ac-IWIAQALR[R8]AGDQFN[S5]YYA-NH2; staple 9-16), the Ki turned out to be 1.9 nM on Bcl-xL; 4.8 nM at Bcl-2; 122 nM at Mcl-1 (TABLE 6, read-out: Mcl-1 Ki). For the same molecule, the Profile entry in the experiment with Mcl-1, Bcl-xL, Bcl-2 (TABLE 6) is “Bcl-xL/Bcl-2 selective”.
